Earlier results in PMC4484741 (Nuclear medicine and biology, 2011).
Read-outs that look alike come from different tables or passages of the source. One block for each molecule: values may come before it.

Key:
GLP-1 receptor = conditions: read-out: Kd, affinity to GLP-1 receptor
pancreatic BCM = conditions: rats, PET

Molecule: GLP-1: endogenous ligand of the GLP-1 receptor
half-life in vivo (fast degradation by dipeptidyl peptidase-4): 1 to 2 min

Molecule: Exendin (9-39): truncated version of exendin-4, antagonist of GLP-1 receptor
Kd (GLP-1 receptor): ~3 nM

Molecule: Exendin-4: 39-amino acid peptide hormone from Gila monster saliva, agonist of GLP-1 receptor
half-life in vivo: about 2.4 h

Time within which liver and pancreas uptake rose to a plateau (pancreatic BCM): ≤ 15 min
Molecule: COc1cc2c(cc1OCCC[18F])CCN1C[C@@H](CC(C)C)[C@H](O)C[C@H]21 [[^18F]FP-DTBZ]

Time within which liver and pancreas uptake rose to a plateau (pancreatic BCM): ≤ 15 min
Molecule: COc1cc2c(cc1O[11CH3])CCN1CC(CC(C)C)C(O)CC21 (centres unmarked) [[^11C]DTBZ]
